Measured values published in patent US11827663B2, “Use of UAP inhibitors to inhibit flux through the hexosamine biosynthetic pathway” (The Johns Hopkins University, priority 2014, dated 2023).
“Also recorded” adds a separate entry of the source. Where two headings read alike, the source gives them in different places.

Key:
Format in all cases: cell-based
global DNA methylation = assay: Global DNA methylation assay in SW1990 cells
Experimental: In 6-well plates, SW1990 cells were seeded (3×10^5) and were treated with Ac4Glc2Bz at the indicated concentrations. DNA from treated cells was isolated using a FitAmp Blood and Cultured Cell DNA Extraction Kit (Epigentek) followed by colormetric determination of global methylation using a MethylFlash™ Methylated DNA Quantification Kit (Epigentek). […] For instance, by reducing flux through the HBP, UAP inhibitors could exert epigenetic effects, as global DNA methylation was increased as shown in FIG. 23. Although hypermethylation of promoter sites of tumor suppressors might be common in cancer at a global scale, cancer cells are almost always characterized by hypomethylation, which the current UAP inhibitors appeared to be reversing (Epigenomics. 2009 December; 1(2): 239-259; Oncogene. 12 Aug. 2002, Volume 21, Number 35, Pages 5400-5413).

SW1990 cells = assay: Cell count / cell proliferation assay in SW1990 cells; conditions: for IC50: Homo sapiens
Experimental: FIG. 3 depicts the result of cell count assays after two days of incubation with an exemplary compound, Ac4Glc2Bz. The cells treated with the compound are, respectively, SW1990 and PANC-1, which are pancreatic cancer cell lines. Meanwhile, control samples were treated with solvent vehicle of 2.5 μL DMSO per 1 mL of medium.
(§1) FIGS. 5A and 5B show the results of cell toxicity experiments that were conducted on SW1990 and PANC-1 cells with the analogs indicated. Cells were counted after incubation with each analog for 48 hours. Cell counts were then normalized to controls, data was log transformed, and IC50 values were calculated. […]
(§2) Cells were incubated at a range of concentrations of the UAP inhibitors (typically at 0, 10, 25, 50, 100, and 150 μM) and the number of cells were quantified, typically by automated counting (e.g., with a Coulter Counter Z2 instrument) after 1, 2, 3, or 5 days of exposure.

PANC-1 cells = assay: Cell count / cell proliferation assay in PANC-1 cells; conditions: Homo sapiens
Experimental: as §1, §2

c-MYC = assay: Western blot of c-MYC; conditions: SW1990, PANC-1, 612 and GS1049 cells, 125 μM or 250 μM
Experimental: Proteins from treated cells were obtained by lysing cells in RIPA buffer (SIGMA) supplemented with Protease Inhibitor Cocktail (1:100), Phosphatase Inhibitor Cocktail 2 (SIGMA) (1:100), and Phosphatase Inhibitor Cocktail 3 (SIGMA)(1:100). SDS-PAGE was performed followed by western blotting for c-MYC (Cell Signaling) and β-actin (SIGMA).

[1] = tested on: O-GlcNAc protein modification; assay: Western blot of O-GlcNAcylation with CTD110.6; conditions: 612, GS1049, SW1990 and PANC-1 cells, 40 μM or 60 μM, 48 h
Experimental: Exemplary CTD110.6 protein expression results were obtained for 612 cells (FIG. 17A); GS1049 cells (FIG. 17B); SE1990 cells (FIG. 17C); and PANC-1 cells (FIG. 17D) with either 40 μM or 60 μM Ac4Glc2Bz.
For example, as shown in FIG. 17A-17D, Ac4Glc2Bz could change O-GlcNAcylation in a dose-dependent manner in each cell of 612 cells (FIG. 17A); GS1049 (FIG. 17B); SW1990 (FIG. 17C) and PANC-1 (FIG. 17D). In particular, the band intensities of CTD110.6 (anti-O-GlcNAc antibody) from each treated cell decreased as the concentrations of Ac4Glc2Bz treatment were increased. 3×10^5 cells were plated in 6-well plates, with 2 wells per condition tested as indicated in FIG. 17A-D. After 48 h, proteins were collected after freezing for 15 minutes at −80° C. using extraction buffer consisting of 20 mM TrisHCl, pH 7.5, 1% v/v NP-40, 2 mM EDTA, 0.1 mM phenylmethylsulfonyl fluoride, phosphatase inhibitor cocktails 2 and 3 (1×) (SIGMA), ThiametG (10 nM) (Cayman Chemical), β-hexosaminidase inhibitor (5 μM) (Millipore), sodium fluoride (1 mM), and β-glycerophosphate (1 mM). The lysed cells were scraped, collected, and incubated on ice for 20 minutes while vortexing for 5-10 s ever 5 minutes. Samples were sonicated for 5 seconds and then centrifuged at 14,000 RPM for 20 minutes at 4° C. The supernatant was removed, normalized to 1 mg/mL, and 20 μg was loaded onto a 7.5% SDS-PAGE gel. […]

IC50 (SW1990 cells; SW1990, 48 h, cell count after two days of incubation, FIG. 3, read-out: IC50 of reduction of cell numbers, SW1990): ~50 µM
IC50 (PANC-1 cells; PANC-1, 48 h, cell count after two days of incubation, FIG. 3, read-out: IC50 of reduction of cell numbers, PANC-1): ~50 µM
IC50 (PANC-1 cells; PANC-1, FIG. 5B, read-out: IC50 of PANC-1 cell proliferation): ~45 µM
Compound: CC(=O)OCC1OC(OC(C)=O)[C@@H](NC(=O)c2ccccc2)[C@@H](OC(C)=O)[C@@H]1OC(C)=O (stereo partly drawn) [Ac4Glc2Bz]
global DNA methylation (global DNA methylation): promote global DNA methylation at higher doses
IC50 (SW1990 cells; SW1990, cells counted after 48 hours incubation, normalized to controls, read-out: Estimated IC50 values, SW1990): 25.8 ± 1.5 µM
effect on SW1990 cell numbers / proliferation (SW1990 cells; in words): lowest IC50 value
IC50 (PANC-1 cells; PANC-1, cells counted after 48 hours incubation, normalized to controls, read-out: Estimated IC50 values, PANC-1): 45.5 ± 1.2 µM
c-MYC expression (c-MYC): reduce c-MYC expression in a dose-dependent manner; also recorded: altered
O-GlcNAcylation, band intensities of CTD110.6 [1]: decreased; also recorded: changed
